Laboratory results as given in the NIST ThermoML archive (doi:10.1016/j.jct.2013.10.034).

Assay: xn = mol fraction of the nth substance listed
Settings: 100 kPa, Liquid; for viscosity: Falling or rolling sphere viscometry; for mass density: Vibrating tube method

CCCC[N+]1(C)CCCCC1.N#C[N-]C#N [1-butyl-1-methylpiperidinium dicyanamide] + O
Settings | mass density [kg/m3] | viscosity [mPa·s]
298.15 K, x1 = 0.0936 | 1007.95 | 6.144
298.15 K, x1 = 0.1748 | 1011.38 | 10.16
298.15 K, x1 = 0.2651 | 1013.31 | 16.96
298.15 K, x1 = 0.3581 | 1014.27 | 24.65
298.15 K, x1 = 0.4952 | 1014.9 | 36.93
298.15 K, x1 = 0.6246 | 1015.36 | 49.82
298.15 K, x1 = 0.7878 | 1015.65 | 72.53
298.15 K, x1 = 0.9216 | 1015.91 | 103.3
298.15 K, x1 = 1 | 1016.13 | 123.3
303.15 K, x1 = 0.0936 | 1004.63 | 5.247
303.15 K, x1 = 0.1748 | 1008.21 | 8.56
303.15 K, x1 = 0.2651 | 1010.2 | 14.05
303.15 K, x1 = 0.3581 | 1011.26 | 20.16
303.15 K, x1 = 0.4952 | 1012.13 | 29.68
303.15 K, x1 = 0.6246 | 1012.52 | 40.79
303.15 K, x1 = 0.7878 | 1012.82 | 57.58
303.15 K, x1 = 0.9216 | 1012.88 | 79.12
303.15 K, x1 = 1 | 1012.98 | 92.97
308.15 K, x1 = 0.0936 | 1001.56 | 4.529
308.15 K, x1 = 0.1748 | 1005.06 | 7.3
308.15 K, x1 = 0.2651 | 1007.08 | 11.81
308.15 K, x1 = 0.3581 | 1008.27 | 16.78
308.15 K, x1 = 0.4952 | 1009.31 | 24.59
308.15 K, x1 = 0.6246 | 1009.93 | 32.52
308.15 K, x1 = 0.7878 | 1010.41 | 46
308.15 K, x1 = 0.9216 | 1010.57 | 64.15
308.15 K, x1 = 1 | 1010.65 | 75.58
313.15 K, x1 = 0.0936 | 998.43 | 3.946
313.15 K, x1 = 0.1748 | 1001.86 | 6.291
313.15 K, x1 = 0.2651 | 1004.02 | 10.05
313.15 K, x1 = 0.3581 | 1005.25 | 14.16
313.15 K, x1 = 0.4952 | 1006.34 | 20.59
313.15 K, x1 = 0.6246 | 1007.01 | 27.94
313.15 K, x1 = 0.7878 | 1007.53 | 38.87
313.15 K, x1 = 0.9216 | 1007.8 | 51.99
313.15 K, x1 = 1 | 1007.92 | 60.93
318.15 K, x1 = 0.0936 | 995.26 | 3.467
318.15 K, x1 = 0.1748 | 998.67 | 5.47
318.15 K, x1 = 0.2651 | 1000.91 | 8.651
318.15 K, x1 = 0.3581 | 1002.25 | 12.11
318.15 K, x1 = 0.4952 | 1003.45 | 17.45
318.15 K, x1 = 0.6246 | 1004.15 | 23.32
318.15 K, x1 = 0.7878 | 1004.74 | 32.26
318.15 K, x1 = 0.9216 | 1005.06 | 42.71
318.15 K, x1 = 1 | 1005.2 | 49.79
323.15 K, x1 = 0.0936 | 992.05 | 3.072
323.15 K, x1 = 0.1748 | 995.43 | 4.8
323.15 K, x1 = 0.2651 | 997.8 | 7.52
323.15 K, x1 = 0.3581 | 999.24 | 10.45
323.15 K, x1 = 0.4952 | 1000.53 | 14.98
323.15 K, x1 = 0.6246 | 1001.31 | 19.5
323.15 K, x1 = 0.7878 | 1001.95 | 27.35
323.15 K, x1 = 0.9216 | 1002.33 | 35.62
323.15 K, x1 = 1 | 1002.47 | 41.31
328.15 K, x1 = 0.0936 | 988.8 | 2.741
328.15 K, x1 = 0.1748 | 992.22 | 4.249
328.15 K, x1 = 0.2651 | 994.68 | 6.592
328.15 K, x1 = 0.3581 | 996.18 | 9.141
328.15 K, x1 = 0.4952 | 997.63 | 12.99
328.15 K, x1 = 0.6246 | 998.47 | 16.43
328.15 K, x1 = 0.7878 | 999.19 | 23.47
328.15 K, x1 = 0.9216 | 999.6 | 30.08
328.15 K, x1 = 1 | 999.77 | 34.72
333.15 K, x1 = 0.0936 | 985.51 | 2.461
333.15 K, x1 = 0.1748 | 988.96 | 3.788
333.15 K, x1 = 0.2651 | 991.37 | 6.05
333.15 K, x1 = 0.3581 | 993.2 | 8.041
333.15 K, x1 = 0.4952 | 994.75 | 11.37
333.15 K, x1 = 0.6246 | 995.66 | 13.93
333.15 K, x1 = 0.7878 | 996.46 | 20.41
333.15 K, x1 = 0.9216 | 996.9 | 25.64
333.15 K, x1 = 1 | 997.08 | 29.45
338.15 K, x1 = 0.0936 | 982.59 | 2.223
338.15 K, x1 = 0.1748 | 985.7 | 3.407
338.15 K, x1 = 0.2651 | 988.38 | 5.181
338.15 K, x1 = 0.3581 | 990.24 | 7.12
338.15 K, x1 = 0.4952 | 991.9 | 10.04
338.15 K, x1 = 0.6246 | 992.85 | 12.9
338.15 K, x1 = 0.7878 | 993.65 | 17.17
338.15 K, x1 = 0.9216 | 994.16 | 21.35
338.15 K, x1 = 1 | 994.39 | –
343.15 K, x1 = 0.0936 | 979.99 | 2.021
343.15 K, x1 = 0.1748 | 982.41 | 3.088
343.15 K, x1 = 0.2651 | 984.88 | 4.682
343.15 K, x1 = 0.3581 | 986.93 | 6.355
343.15 K, x1 = 0.4952 | 988.84 | 8.928
343.15 K, x1 = 0.6246 | 990.06 | 11.72
343.15 K, x1 = 0.7878 | 990.92 | 15.74
343.15 K, x1 = 0.9216 | 991.45 | 19.52
343.15 K, x1 = 1 | 991.72 | 21.98
